In patent US20090118274A1, “MONOCYCLIC AMINOPROPYL TETRAHYDRO-PYRAZOLO-PYRIDINE MODULATORS OF CATHEPSIN S” (priority 2007, published 2009):
Read-outs that look alike come from different tables or passages of the source.

Biological target: T1, Recombinant human cathepsin S (CatS) (Homo sapiens, UniProt P25774)
T1 construct: made in house
Assay: Recombinant human cathepsin S (CatS) fluorogenic substrate inhibition assay
Assay type: biochemical
Procedure: Recombinant human cathepsin S (CatS) was expressed in the baculovirus system and purified in one step with a thiopropyl-sepharose column. […] The assay is run in 150 mM sodium acetate pH 5.0 containing 1.5 mM DTT and 150 mM NaCl. […] Measurements are taken every min for 20 min. The rate is calculated from the slope of the increase in fluorescence and the percent inhibition is calculated from this.

[1] = average of results obtained, substrate Z-Valine-Valine-Arginine-AMC 10 μM, pH 5.0, read-out: CatS IC50

T1 sequence (P25774 115-331): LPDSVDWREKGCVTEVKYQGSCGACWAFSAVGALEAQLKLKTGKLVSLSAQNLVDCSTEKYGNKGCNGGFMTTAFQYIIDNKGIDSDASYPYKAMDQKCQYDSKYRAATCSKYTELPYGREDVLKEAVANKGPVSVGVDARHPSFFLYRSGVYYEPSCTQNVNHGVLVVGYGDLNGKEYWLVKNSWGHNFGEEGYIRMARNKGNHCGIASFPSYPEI

Row | SMILES | IC50 [1] [nM] | IC50 [nM]
1 | CC(=O)NC1CCN(CC(O)Cn2nc(-c3ccc(C(F)(F)F)c(CNC(=O)CC(C)C)c3)c3c2CCN(S(C)(=O)=O)C3)C1 (stereo not drawn) [Example 278, N-(5-{1-[3-(3-Acetylamino-pyrrolidin-1-yl)-2-hydroxy-propyl]-5-methanesulfonyl-4,5,6,7-tetrahydro-1H-pyrazolo[4,3-c]pyridin-3-yl}-2-trifluoromethyl-benzyl)-3-methyl-butyramide] | 380 | 
2 | CC(C)=CC(=O)NCc1cc(-c2nn(CC(O)CN3CCC(O)C3)c3c2CN(S(C)(=O)=O)CC3)ccc1C(F)(F)F (stereo not drawn) [Example 32, 3-Methyl-but-2-enoic acid 5-{1-[2-hydroxy-3-(3-hydroxy-pyrrolidin-1-yl)-propyl]-5-methanesulfonyl-4,5,6,7-tetrahydro-1H-pyrazolo[4,3-c]pyridin-3-yl}-2-trifluoromethyl-benzylamide] | 270 | 
3 | CS(=O)(=O)N1CCc2c(c(-c3ccc(C(F)(F)F)c(CNC(=O)c4ccccc4)c3)nn2CCCN2CCC3(CCNC3=O)CC2)C1 [Example 144, N-(5-{5-Methanesulfonyl-1-[3-(1-oxo-2,8-diaza-spiro[4.5]dec-8-yl)-propyl]-4,5,6,7-tetrahydro-1H-pyrazolo[4,3-c]pyridin-3-yl}-2-trifluoromethyl-benzyl)-benzamide] | 110 | 
4 | CC(=O)NC1CCN(CC(Cn2nc(-c3ccc(Cl)c(CNC(=O)c4ccc(F)cc4)c3)c3c2CCN(S(C)(=O)=O)C3)OC(C)=O)CC1 (stereo not drawn) [Example 80, Acetic acid 1-(4-acetylamino-piperidin-1-ylmethyl)-2-(3-{4-chloro-3-[(4-fluoro-benzoylamino)-methyl]-phenyl}-5-methanesulfonyl-4,5,6,7-tetrahydro-pyrazolo[4,3-c]pyridin-1-yl)-ethyl ester] | 100 | 
5 | CC(C)=CC(=O)NCc1cc(-c2nn(CC(O)CN3CCOCC3)c3c2CN(S(C)(=O)=O)CC3)ccc1C(F)(F)F (stereo not drawn) [Example 153, 3-Methyl-but-2-enoic acid 5-[1-(2-hydroxy-3-morpholin-4-yl-propyl)-5-methanesulfonyl-4,5,6,7-tetrahydro-1H-pyrazolo[4,3-c]pyridin-3-yl]-2-trifluoromethyl-benzylamide] | 140 | 
6 | COC1CCN(CC(O)Cn2nc(-c3ccc(Cl)c(CNC(=O)c4ccc(F)cc4)c3)c3c2CCN(S(C)(=O)=O)C3)CC1 (stereo not drawn) [Example 75, N-(2-Chloro-5-{1-[2-hydroxy-3-(4-methoxy-piperidin-1-yl)-propyl]-5-methanesulfonyl-4,5,6,7-tetrahydro-1H-pyrazolo[4,3-c]pyridin-3-yl}-benzyl)-4-fluoro-benzamide] | 140 | 
7 | CS(=O)(=O)N1CCc2c(c(-c3ccc(Cl)c(CNC(=O)c4ccc(F)cc4)c3)nn2CC(O)CN2CCC(C(F)(F)F)CC2)C1 (stereo not drawn) [Example 15, N-(2-Chloro-5-{1-[2-hydroxy-3-(4-trifluoromethyl-piperidin-1-yl)-propyl]-5-methanesulfonyl-4,5,6,7-tetrahydro-1H-pyrazolo[4,3-c]pyridin-3-yl}-benzyl)-4-fluoro-benzamide] |  | 70
8 | CS(=O)(=O)N1CCc2c(c(-c3ccc(Cl)c(CNC(=O)c4ccncc4)c3)nn2CCCN2CCCC2)C1 [Example 235, N-{2-Chloro-5-[5-methanesulfonyl-1-(3-pyrrolidin-1-yl-propyl)-4,5,6,7-tetrahydro-1H-pyrazolo[4,3-c]pyridin-3-yl]-benzyl}-isonicotinamide] | 890 | 
9 | CS(=O)(=O)N1CCc2c(c(-c3ccc(Cl)c(CNS(=O)(=O)c4ccc(Cl)c(Cl)c4)c3)nn2CCCN2CCCC2)C1 [Example 197, 3,4-Dichloro-N-{2-chloro-5-[5-methanesulfonyl-1-(3-pyrrolidin-1-yl-propyl)-4,5,6,7-tetrahydro-1H-pyrazolo[4,3-c]pyridin-3-yl]-benzyl}-benzenesulfonamide] | 5400 | 
10 | CS(=O)(=O)N1CCc2c(c(-c3ccc(C(F)(F)F)c(CNC(=O)Oc4ccccc4)c3)nn2CC(O)CN2CCCC2)C1 (stereo not drawn) [Example 116, {5-[1-(2-Hydroxy-3-pyrrolidin-1-yl-propyl)-5-methanesulfonyl-4,5,6,7-tetrahydro-1H-pyrazolo[4,3-c]pyridin-3-yl]-2-trifluoromethyl-benzyl}-carbamic acid phenyl ester] |  | 520
11 | CS(=O)(=O)N1CCc2c(c(-c3ccc(C(F)(F)F)c(CNC(=O)c4ccc(F)cc4)c3)nn2CC(O)CN2CNC(=O)C2)C1 (stereo not drawn) [Example 171, 4-Fluoro-N-(5-{1-[2-hydroxy-3-(4-oxo-imidazolidin-1-yl)-propyl]-5-methanesulfonyl-4,5,6,7-tetrahydro-1H-pyrazolo[4,3-c]pyridin-3-yl}-2-trifluoromethyl-benzyl)-benzamide] | 600 | 
12 | CS(=O)(=O)N1CCc2c(c(-c3ccc(Cl)c(COC(=O)c4ccccc4)c3)nn2CCCN2CCCC2)C1 [Example 70, Benzoic acid 2-chloro-5-[5-methanesulfonyl-1-(3-pyrrolidin-1-yl-propyl)-4,5,6,7-tetrahydro-1H-pyrazolo[4,3-c]pyridin-3-yl]-benzyl ester] | 1850 | 
13 | CC(C)CC(=O)NCc1cc(-c2nn(CC(O)CN3CCC(O)C3)c3c2CN(S(C)(=O)=O)CC3)ccc1C(F)(F)F (stereo not drawn) [Example 246, N-(5-{1-[2-Hydroxy-3-(3-hydroxy-pyrrolidin-1-yl)-propyl]-5-methanesulfonyl-4,5,6,7-tetrahydro-1H-pyrazolo[4,3-c]pyridin-3-yl}-2-trifluoromethyl-benzyl)-3-methyl-butyramide] | 430 | 
14 | CS(=O)(=O)N1CCc2c(c(-c3ccc(C(F)(F)F)c(CNC(=O)c4ccc(F)cc4)c3)nn2CC(O)CN2CCC3(CCNC3=O)CC2)C1 (stereo not drawn) [Example 16, 4-Fluoro-N-(5-{1-[2-hydroxy-3-(1-oxo-2,8-diaza-spiro[4.5]dec-8-yl)-propyl]-5-methanesulfonyl-4,5,6,7-tetrahydro-1H-pyrazolo[4,3-c]pyridin-3-yl}-2-trifluoromethyl-benzyl)-benzamide] | 60 | 
15 | CS(=O)(=O)N1CCc2c(c(-c3ccc(Cl)c(CNC(=O)/C=C/c4ccccc4)c3)nn2CCCN2CCCC2)C1 [Example 219, N-{2-Chloro-5-[5-methanesulfonyl-1-(3-pyrrolidin-1-yl-propyl)-4,5,6,7-tetrahydro-1H-pyrazolo[4,3-c]pyridin-3-yl]-benzyl}-3-phenyl-acrylamide] | 640 | 

Continued, values first:

Row | IC50 [1] [nM] | IC50 [nM] | SMILES
16 | 500 |  | CS(=O)(=O)N1CCc2c(c(-c3ccc(Cl)c(CNC(=O)c4ccccc4)c3)nn2CC(O)CN2CCCC2)C1 (stereo not drawn) [Example 69, N-{2-Chloro-5-[1-(2-hydroxy-3-pyrrolidin-1-yl-propyl)-5-methanesulfonyl-4,5,6,7-tetrahydro-1H-pyrazolo[4,3-c]pyridin-3-yl]-benzyl}-benzamide]
17 | 240 |  | Cc1cc(C(=O)NCc2cc(-c3nn(CC(O)CN4CCCC4)c4c3CN(S(C)(=O)=O)CC4)ccc2C(F)(F)F)ccc1F (stereo not drawn) [Example 96, 4-Fluoro-N-{5-[1-(2-hydroxy-3-pyrrolidin-1-yl-propyl)-5-methanesulfonyl-4,5,6,7-tetrahydro-1H-pyrazolo[4,3-c]pyridin-3-yl]-2-trifluoromethyl-benzyl}-3-methyl-benzamide]
18 | 50 |  | CC(=O)NC1CCN(CC(O)Cn2nc(-c3ccc(C(F)(F)F)c(CNC(=O)c4ccc(F)cc4)c3)c3c2CCN(S(C)(=O)=O)C3)CC1 (stereo not drawn) [Example 140, N-(5-{1-[3-(4-Acetylamino-piperidin-1-yl)-2-hydroxy-propyl]-5-methanesulfonyl-4,5,6,7-tetrahydro-1H-pyrazolo[4,3-c]pyridin-3-yl}-2-trifluoromethyl-benzyl)-4-fluoro-benzamide]
19 | 460 |  | CS(=O)(=O)N1CCc2c(c(-c3ccc(C(F)(F)F)c(CNC(=O)c4cccc(Cl)c4)c3)nn2CC(O)CN2CCCC2)C1 (stereo not drawn) [Example 166, 3-Chloro-N-{5-[1-(2-hydroxy-3-pyrrolidin-1-yl-propyl)-5-methanesulfonyl-4,5,6,7-tetrahydro-1H-pyrazolo[4,3-c]pyridin-3-yl]-2-trifluoromethyl-benzyl}-benzamide]
20 | 1630 |  | CS(=O)(=O)N1CCc2c(c(-c3ccc(C(F)(F)F)c(CNCc4ccccc4)c3)nn2CC(O)CN2CCCC2)C1 (stereo not drawn) [Example 205, 1-{3-[3-(Benzylamino-methyl)-4-trifluoromethyl-phenyl]-5-methanesulfonyl-4,5,6,7-tetrahydro-pyrazolo[4,3-c]pyridin-1-yl}-3-pyrrolidin-1-yl-propan-2-ol]
21 | 370 |  | CC(C)CC(=O)NCc1cc(-c2nn(CC(O)CN3CCCC3)c3c2CN(S(C)(=O)=O)CC3)ccc1C(F)(F)F (stereo not drawn) [Example 281, N-{5-[1-(2-Hydroxy-3-pyrrolidin-1-yl-propyl)-5-methanesulfonyl-4,5,6,7-tetrahydro-1H-pyrazolo[4,3-c]pyridin-3-yl]-2-trifluoromethyl-benzyl]-3-methyl-butyramide]
22 | 30 |  | CCOC(=O)C1CCN(CC(O)Cn2nc(-c3ccc(C(F)(F)F)c(CNC(=O)c4ccc(F)cc4)c3)c3c2CCN(S(C)(=O)=O)C3)CC1 (stereo not drawn) [Example 103, 1-[3-(3-{3-[(4-Fluoro-benzoylamino)-methyl]-4-trifluoromethyl-phenyl}-5-methanesulfonyl-4,5,6,7-tetrahydro-pyrazolo[4,3-c]pyridin-1-yl)-2-hydroxy-propyl]-piperidine-4-carboxylic acid ethyl ester]
23 |  | 770 | CS(=O)(=O)N1CCc2c(c(-c3ccc(C(F)(F)F)c(CNC(=O)c4cccc(C(=O)O)c4)c3)nn2CC(O)CN2CCCC2)C1 (stereo not drawn) [Example 191, N-{5-[1-(2-Hydroxy-3-pyrrolidin-1-yl-propyl)-5-methanesulfonyl-4,5,6,7-tetrahydro-1H-pyrazolo[4,3-c]pyridin-3-yl]-2-trifluoromethyl-benzyl]-isophthalamic acid]
24 | 780 |  | CS(=O)(=O)N1CCc2c(c(-c3ccc(C(F)(F)F)c(CNC(=O)c4ccc(Cl)c(Cl)c4)c3)nn2CC(O)CN2CCCC2)C1 (stereo not drawn) [Example 229, 3,4-Dichloro-N-{5-[1-(2-hydroxy-3-pyrrolidin-1-yl-propyl)-5-methanesulfonyl-4,5,6,7-tetrahydro-1H-pyrazolo[4,3-c]pyridin-3-yl]-2-trifluoromethyl-benzyl}-benzamide]
